Measured values taken from patent US10851108B2, “Substituted bicyclic heterocyclic compounds” (BRISTOL-MYERS SQUIBB COMPANY, priority 2016, dated 2020).

The compounds below were run against hROMK (human Kir1.1) (Homo sapiens (Human), UniProt P48048) (assay: Thallium Flux Assay). Settings: CHO T-Rex hROMK stable cell line, 10-point concentration response; read-out: hROMK Th+ Flux IC50.
Sequence of hROMK (human Kir1.1) (P48048 whole entry): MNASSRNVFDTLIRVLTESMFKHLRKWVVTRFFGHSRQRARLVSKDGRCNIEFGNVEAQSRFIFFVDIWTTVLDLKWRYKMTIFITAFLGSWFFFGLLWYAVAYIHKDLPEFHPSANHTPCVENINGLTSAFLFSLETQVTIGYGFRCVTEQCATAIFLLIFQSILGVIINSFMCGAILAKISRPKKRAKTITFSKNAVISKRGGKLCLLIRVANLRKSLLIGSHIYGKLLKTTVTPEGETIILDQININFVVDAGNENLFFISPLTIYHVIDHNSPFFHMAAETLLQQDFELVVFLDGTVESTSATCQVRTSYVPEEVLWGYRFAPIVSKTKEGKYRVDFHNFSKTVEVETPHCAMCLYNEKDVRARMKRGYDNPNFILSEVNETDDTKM
Assay type: cell-based
Protocol: Solutions and reagents: Thallium flux assay was performed using FluxOR kit (F10017, Life Technologies). Loading buffer, assay buffer and stimulus buffer were prepared using kit components. HBSS (Hank's balanced salt solution, Cat #14025-092) was purchased separately from Life Technologies.
To prepare 10 ml of loading buffer: 10 μl of FluxOR dye (reconstituted in DMSO) was first added to 100 μl of powerload concentrate and this mix along with 100 μl of Probenicid (100×) was then added to 9.79 ml of HBSS. Assay buffer (10 ml) was prepared by addition of 2 ml of FluxOR chloride free buffer (5×), 100 μl of Probenicid (100×), and 0.2 ml of Ouabain (13.77 mM) to 7.7 ml of deionized water. Stimulus buffer was composed of 15 mM Tl2SO4, 0.75 mM K2SO4 in FluxOR chloride free buffer (diluted to 1× using deionized water). The final concentration of Tl2SO4 and K2SO4 in the assay plate was 3 mM and 0.15 mM, respectively.
Plating and induction of cells: The CHO T-Rex hROMK (human Kir1.1) stable cell line was maintained in Ham's F12 media supplemented with 10% FBS, 1% Penicillin-Streptomycin, 500 μg/ml Zeocin and 10 μg/ml Blasticidin at 37° C. in a 5% CO2 incubator. One day before the experiment, the cells were dissociated by incubation with Versene solution (15040-066, Life Technologies) for 10 minutes at 37° C. followed by addition of growth media. The cell suspension was centrifuged at 1200 rpm for 5 min. After discarding the supernatant, the cells were resuspended in fresh growth media and cell concentration was determined using a hemocytometer. Next, 0.5 μg/ml of Doxycycline was added to the cell suspension to induce hROMK channel expression and 50 μl (10,000 cells/well) of cell suspension was added to each well of a poly-D lysine coated 384 well black, optically clear bottom plate (6007718, Perkin Elmer). The assay plate was kept at 37° C. in a 5% CO2 incubator.
Assay protocol: On the day of experiment, media was removed and loading buffer was added (30 μl/well) to the assay plate. The cells were incubated in the loading buffer for 30 minutes at 37° C. The loading buffer was then replaced by assay buffer (30 μl/well) followed by addition of test compounds or controls. The cells were incubated with compounds for 30 minutes and the plate was then mounted on FlexStation (Molecular Devices) for fluorescence read out with excitation and emission wavelengths at 488 and 525 nm, respectively. Each well was read for 90 sec at 2 sec interval and the stimulus buffer was added after 20 seconds of baseline recording. The final DMSO concentration was either 0.5 or 1% in the assay plate. […] controls were defined by addition of DMSO or 3 μM of a standard ROMK inhibitor, respectively, to the wells instead of a test compound.
A 10-point concentration response curve was used to estimate the IC50 value of test compounds.
The data in Table 3 is reported with two significant figures.
For `Cc1c(C(O)CN2CCc3nc(-n4cc(C#N)c5ccccc54)ncc3C2)ccc2c1COC2=O` (single isomer, unassigned) [Example 8-II, 1-(6-(2-hydroxy-2-(4-methyl-1-oxo-1,3-dihydroisobenzofuran-5-yl)ethyl)-5,6,7,8-tetrahydropyrido[4,3-d]pyrimidin-2-yl)-1H-indole-3-carbonitrile], the IC50 was 83 nM.
Compound `Cc1cc(Nc2ncc3c(n2)CCN(Cc2ccc4c(c2C)COC4=O)C3)ncc1C#N` [Example 31, 4-methyl-6-((6-((4-methyl-1-oxo-1,3-dihydroisobenzofuran-5-yl)methyl)-5,6,7,8-tetrahydropyrido[4,3-d]pyrimidin-2-yl)amino) nicotinonitrile] has an IC50 of 1500 nM.
`Cc1c(C(O)CN2CCc3nc(-n4ccc5c(C#N)cncc54)ncc3C2)ccc2c1COC2=O` (single isomer, unassigned) [Example 42-II, 1-(6-(2-hydroxy-2-(4-methyl-1-oxo-1,3-dihydroisobenzofuran-5-yl)ethyl)-5,6,7,8-tetrahydropyrido[4,3-d]pyrimidin-2-yl)-1H-pyrrolo[2,3-c]pyridine-4-carbonitrile] was tested, and the IC50 was 210 nM.
`Cc1c(C(O)CN2CCc3nc(-n4ccc5c(C#N)cccc54)ncc3C2)ccc2c1COC2=O` (single isomer, unassigned) [Example 1-II, 1-(6-(2-hydroxy-2-(4-methyl-1-oxo-1,3-dihydroisobenzofuran-5-yl)ethyl)-5,6,7,8-tetrahydropyrido[4,3-d]pyrimidin-2-yl)-1H-indole-4-carbonitrile] showed an IC50 of 460 nM.
In the case of `Cn1c(=O)oc2ccc(CN3CCc4cc(Nc5ccc(C#N)c(F)c5)ccc4C3)cc21` [Example 48, 2-fluoro-4-((2-((3-methyl-2-oxo-2,3-dihydrobenzo[d]oxazol-5-yl)methyl)-1,2,3,4-tetrahydroisoquinolin-6-yl)amino)benzonitrile], the IC50 is reported as 600 nM.
For `Cc1c(CN2Cc3cnc(Nc4ccc(C#N)c(F)c4)nc3CC2CO)ccc2c1COC2=O` (stereo not drawn) [Example 57-II, 2-fluoro-4-((7-(hydroxymethyl)-6-((4-methyl-1-oxo-1,3-dihydroisobenzo-furan-5-yl)methyl)-5,6,7,8-tetrahydro-pyrido[4,3-d]pyrimidin-2-yl)amino) benzonitrile], the IC50 was 679 nM.
Compound `Cc1c(CN2CCc3cc(-n4ccc5c(C#N)cccc54)ccc3C2)ccc2c1COC2=O` [Example 24, 1-(2-((4-methyl-1-oxo-1,3-dihydro-isobenzofuran-5-yl)methyl)-1,2,3,4-tetrahydroisoquinolin-6-yl)-1H-indole-4-carbonitrile] has an IC50 of 820 nM.
`N#Cc1ccc(Nc2ncc3c(n2)CCN(Cc2ccc4c(c2)COC4=O)C3)cc1F` [Example 2] showed an IC50 of 960 nM.
For `Cc1c(C(CO)N2CCc3nc(-n4cc(C#N)c5ccccc54)ncc3C2)ccc2c1COC2=O` (single isomer, unassigned) [Example 9-II, 1-(6-(2-hydroxy-1-(4-methyl-1-oxo-1,3-dihydroisobenzofuran-5-yl)ethyl)-5,6,7,8-tetrahydropyrido[4,3-d]pyrimidin-2-yl)-1H-indole-3-carbonitrile], the IC50 was 1800 nM.
Work on `Cc1c(CN2CCc3cc(Nc4ccn5nccc5n4)ccc3C2)ccc2c1COC2=O` [Example 38, 4-methyl-5-((6-(pyrazolo[1,5-a]pyrimidin-5-ylamino)-3,4-dihydroisoquinolin-2(1H)-yl)methyl)isobenzofuran-1(3H)-one] yielded an IC50 of 1900 nM.
In the case of `Cc1c(CN2CCc3nc(Nc4ccc5c(c4C)COC5=O)ncc3C2)ccc2c1COC2=O` [Example 5, 4-methyl-5-((2-((4-methyl-1-oxo-1,3-dihydroisobenzofuran-5-yl)amino)-7,8-dihydropyrido[4,3-d]pyrimidin-6(5H)-yl)methyl)isobenzofuran-1(3H)-one], the IC50 is reported as 790 nM.
In the case of `Cc1c(CN2Cc3cnc(Nc4ccc(C#N)c(F)c4)nc3CC2CO)ccc2c1COC2=O` (single isomer, unassigned) [Example 57-I, 2-fluoro-4-((7-(hydroxymethyl)-6-((4-methyl-1-oxo-1,3-dihydroisobenzo-furan-5-yl)methyl)-5,6,7,8-tetrahydro-pyrido[4,3-d]pyrimidin-2-yl)amino) benzonitrile], the IC50 is reported as 830 nM.
In the case of `Cc1c(C(CO)N2CCc3nc(Nc4ccc(C#N)c(F)c4)ncc3C2)ccc2c1COC2=O` (single isomer, unassigned) [Example 29-II, 2-fluoro-4-((6-(2-hydroxy-1-(4-methyl-1-oxo-1,3-dihydroisobenzofuran-5-yl)ethyl)-5,6,7,8-tetrahydropyrido [4,3-d]pyrimidin-2-yl)amino)benzonitrile], the IC50 is reported as 2100 nM.
With `N#Cc1ccc2c(cnn2-c2ncc3c(n2)CCN(Cc2ccc4c(c2)COC4=O)C3)c1` [Example 11, 1-(6-((1-oxo-1,3-dihydroisobenzofuran-5-yl)methyl)-5,6,7,8-tetrahydropyrido[4,3-d]pyrimidin-2-yl)-1H-indazole-5-carbonitrile] the IC50 was 1200 nM.
For `COc1cc(Nc2ncc3c(n2)CCN(CC(O)c2ccc4c(c2C)COC4=O)C3)ncc1C#N` (single isomer, unassigned) [Example 64-I, 6-((6-(2-hydroxy-2-(4-methyl-1-oxo-1,3-dihydroisobenzofuran-5-yl)ethyl)-5,6,7,8-tetrahydropyrido[4,3-d]pyrimidin-2-yl)amino)-4-methoxynicotinonitrile], the IC50 was 381 nM.
`CCOC(=O)c1cnc2cnn(-c3ncc4c(n3)CCN(CC(O)c3ccc5c(c3C)COC5=O)C4)c2c1` (single isomer, unassigned) [Example 51-I, ethyl 1-(6-(2-hydroxy-2-(4-methyl-1-oxo-1,3-dihydroisobenzofuran-5-yl)ethyl)-5,6,7,8-tetrahydropyrido[4,3-d]pyrimidin-2-yl)-1H-pyrazolo[4,3-b]pyridine-6-carboxylate] gave an IC50 of 495 nM.
With `Cc1c(C(CO)N2CCc3nc(-n4ccc5cc(C#N)cnc54)ncc3C2)ccc2c1COC2=O` (single isomer, unassigned) [Example 45-I, 1-(6-(2-hydroxy-1-(4-methyl-1-oxo-1,3-dihydroisobenzofuran-5-yl)ethyl)-5,6,7,8-tetrahydropyrido[4,3-d]pyrimidin-2-yl)-1H-pyrrolo[2,3-b]pyridine-5-carbonitrile] the IC50 was 4700 nM.
For `Cc1c(C(O)CN2CCc3nc(-n4ncc5c(C#N)cccc54)ncc3C2)ccc2c1COC2=O` (single isomer, unassigned) [Example 12-I, 1-(6-(2-hydroxy-2-(4-methyl-1-oxo-1,3-dihydroisobenzofuran-5-yl)ethyl)-5,6,7,8-tetrahydropyrido[4,3-d]pyrimidin-2-yl)-1H-indazole-4-carbonitrile], the IC50 was 38 nM.
`N#Cc1ccc2c(ccn2-c2ncc3c(n2)CCN(CC(O)c2ccc4c(c2)COC4=O)C3)c1` (single isomer, unassigned) [Example 17-I, 1-(6-(2-hydroxy-2-(1-oxo-1,3-dihydro-isobenzofuran-5-yl)ethyl)-5,6,7,8-tetrahydropyrido[4,3-d]pyrimidin-2-yl)-1H-indole-5-carbonitrile] showed an IC50 of 340 nM.
For `Cc1c(C(O)CN2CCc3nc(Nc4ccc5oc(=O)n(C)c5c4)ncc3C2)ccc2c1COC2=O` (single isomer, unassigned) [Example 62-I, 5-((6-(2-hydroxy-2-(4-methyl-1-oxo-1,3-dihydroisobenzofuran-5-yl)ethyl)-5,6,7,8-tetrahydropyrido[4,3-d]pyrimidin-2-yl)amino)-3-methylbenzo[d] oxazol-2(3H)-one], the IC50 was 1030 nM.
`Cc1c(CN2CCc3nc(-n4cc(C#N)c5ccccc54)ncc3C2)ccc2c1COC2=O` [Example 23, 1-(6-((4-methyl-1-oxo-1,3-dihydro-isobenzofuran-5-yl)methyl)-5,6,7,8-tetrahydropyrido[4,3-d]pyrimidin-2-yl)-1H-indole-3-carbonitrile] was tested, and the IC50 was 1100 nM.
